Laboratory results taken from publication PMC8643619 (Plant and Cell Physiology, 2021).

How the values were obtained:
PcAAE2 = assay: coupled NADH oxidation assay; type: biochemical, Pogostemon cablin; conditions: 10 mM MgCl2, pH 7.5, 30°C
PcAAE1 = assay: coupled NADH oxidation assay; type: biochemical, Pogostemon cablin; conditions: 10 mM MgCl2, pH 7.5, 30°C

Row | Structure (SMILES) | Km (PcAAE2; 1 mM CoA, 5 mM ATP) | other results
1 | CC(C)CCC(=O)O [4-Methylvaleric acid] | 43.4 ± 5.1 µM | –
2 | CC(C)CCCC(=O)O [5-Methylhexanoic acid] | 176 ± 20 µM | –
3 | Nc1ncnc2c1ncn2[C@@H]1O[C@H](COP(=O)(O)OP(=O)(O)OP(=O)(O)O)[C@@H](O)[C@H]1O [ATP] | – | Km (PcAAE2; co-substrate 4-methylvaleric acid 1 mM, CoA 1 mM): 160 µM; Km (PcAAE1; co-substrate isovaleric acid 1 mM, CoA 1 mM): 89 µM
4 | CC(C)(COP(=O)(O)OP(=O)(O)OC[C@H]1O[C@@H](n2cnc3c(N)ncnc32)[C@H](O)[C@@H]1OP(=O)(O)O)[C@@H](O)C(=O)NCCC(=O)NCCS [CoA] | – | Km (PcAAE2; co-substrate 4-methylvaleric acid 1 mM, 5 mM ATP): 40.2 µM; Km (PcAAE1; co-substrate isovaleric acid 1 mM, 5 mM ATP): 28.2 µM
5 | CC(C)CC(=O)O [Isovaleric acid] | 217 ± 13.1 µM | Km (PcAAE1; 1 mM CoA, 5 mM ATP): 12.9 ± 0.8 µM

Second part, led by results:

Row | Km (PcAAE2; 1 mM CoA, 5 mM ATP) | Structure (SMILES) | other results
6 | 570 ± 86.5 µM | CCCC(=O)O [Butyric acid] | Km (PcAAE1; 1 mM CoA, 5 mM ATP): 161 ± 5 µM
7 | 84.5 ± 7.1 µM | CCCCCCC(=O)O [Heptanoic acid] | –
8 | 41.5 ± 2.4 µM | CCCCCC(=O)O [Hexanoic acid] | –
9 | 53.9 ± 2.7 µM | CCCCC(=O)O [Valeric acid] | –
